Test results: the supplement of paper PMC13380429

Tests used:
Conditions in all cases: 72 h
Caco-2 [1] = experiment: cell viability relative to DMSO; higher = less toxic
Calu-3 [2] = experiment: as above
HepG2 [3] = experiment: as above
U2OS [4] = experiment: as above
Vero E6 [5] = experiment: as above
Caco-2 [6] = experiment: relative viability EC50 (midpoint between 100% and the lowest measured viability); higher = less toxic
Calu-3 [7] = experiment: as above
HepG2 [8] = experiment: as above
U2OS [9] = experiment: as above
Vero E6 [10] = experiment: as above
Caco-2 [11] = experiment: drug sensitivity score (DSS) for viability; higher = more toxic; extreme values may be limits of the assay
Calu-3 [12] = experiment: as above
HepG2 [13] = experiment: as above
U2OS [14] = experiment: as above
Vero E6 [15] = experiment: as above

| SMILES | cell viability (Caco-2 [1]; 1 nM) [%] | cell viability (Caco-2 [1]; 10 nM) [%] | cell viability (Caco-2 [1]; 100 nM) [%] | cell viability (Caco-2 [1]; 1000 nM) [%] | cell viability (Caco-2 [1]; 10000 nM) [%] | cell viability (Calu-3 [2]; 1 nM) [%] | cell viability (Calu-3 [2]; 10 nM) [%] | cell viability (Calu-3 [2]; 100 nM) [%] | cell viability (Calu-3 [2]; 1000 nM) [%] | cell viability (Calu-3 [2]; 10000 nM) [%] | cell viability (HepG2 [3]; 1 nM) [%] | cell viability (HepG2 [3]; 10 nM) [%] | cell viability (HepG2 [3]; 100 nM) [%] | cell viability (HepG2 [3]; 1000 nM) [%] | cell viability (HepG2 [3]; 10000 nM) [%] | cell viability (U2OS [4]; 1 nM) [%] | cell viability (U2OS [4]; 10 nM) [%] | cell viability (U2OS [4]; 100 nM) [%] | cell viability (U2OS [4]; 1000 nM) [%] | cell viability (U2OS [4]; 10000 nM) [%] | cell viability (Vero E6 [5]; 1 nM) [%] | cell viability (Vero E6 [5]; 10 nM) [%] | cell viability (Vero E6 [5]; 100 nM) [%] | cell viability (Vero E6 [5]; 1000 nM) [%] | cell viability (Vero E6 [5]; 10000 nM) [%] | relative viability EC50 (Caco-2 [6]) [µM] | relative viability EC50 (Calu-3 [7]) [µM] | relative viability EC50 (HepG2 [8]) [µM] | relative viability EC50 (U2OS [9]) [µM] | relative viability EC50 (Vero E6 [10]) [µM] | drug sensitivity score (Caco-2 [11]) | drug sensitivity score (Calu-3 [12]) | drug sensitivity score (HepG2 [13]) | drug sensitivity score (U2OS [14]) | drug sensitivity score (Vero E6 [15]) |
| --- | --- | --- | --- | --- | --- | --- | --- | --- | --- | --- | --- | --- | --- | --- | --- | --- | --- | --- | --- | --- | --- | --- | --- | --- | --- | --- | --- | --- | --- | --- | --- | --- | --- | --- | --- |
| OCCc1ccc(OCCn2ccnc2)cc1 [MR-948] | 94.9 | 93.1 | 86.3 | 108 | 99.8 | 96.4 | 99 | 97.6 | 105 | 104 | 89.2 | 104 | 96.7 | 106 | 106 | 99.4 | 99.9 | 98.6 | 96 | 96.8 | 90 | 98.6 | 94.8 | 95 | 107 | > 10 | > 10 | > 10 | > 10 | > 10 | 0 | 0 | 0 | 0 | 0 |
| Cc1cc(-c2nncc3c(C(C)(C)C)c(OCc4ncnn4C)nn23)no1 [MRK-016] | 97.7 | 104 | 96.6 | 89 | 97.2 | 104 | 111 | 108 | 93.9 | 100 | 105 | 94.9 | 104 | 98.1 | 96.8 | 101 | 104 | 99.1 | 101 | 102 | 100 | 102 | 98.5 | 97.6 | 94.5 | > 10 | > 10 | > 10 | > 10 | > 10 | 0 | 0 | 0 | 0 | 0 |
| NS(=O)(=O)c1cccc2c1c([N+](=O)[O-])cc1nc(O)c(O)nc12 [NBQX] | 102 | 99.3 | 97 | 95.6 | 102 | 101 | 85.9 | 92.4 | 93.9 | 103 | 101 | 105 | 101 | 92.7 | 106 | 104 | 106 | 98.5 | 103 | 102 | 103 | 100 | 101 | 101 | 99.8 | > 10 | > 10 | > 10 | > 10 | > 10 | 0 | 0 | 0 | 0 | 0 |
| Nc1ncc2c(n1)CC(c1ccco1)CC2=O (stereo not given) [NKY-80] | 97 | 98.3 | 102 | 86.4 | 97.6 | 106 | 96.1 | 110 | 101 | 94.8 | 103 | 105 | 109 | 105 | 91 | 96.4 | 97.3 | 99.7 | 97.6 | 100 | 101 | 104 | 100 | 97.7 | 101 | > 10 | > 10 | > 10 | > 10 | > 10 | 0 | 0 | 0 | 0 | 0 |
| NC(=O)CN1CC[C@@H](NC(=O)[C@@H]2CCCN2)C1=O [PAOPA] | 100 | 99.7 | 100 | 134 | 96.7 | 98.1 | 99.6 | 106 | 94.2 | 106 | 89.1 | 109 | 97 | 100 | 108 | 100 | 102 | 102 | 105 | 95.2 | 95.4 | 97.8 | 92.5 | 101 | 104 | > 10 | > 10 | > 10 | > 10 | > 10 | 0 | 0 | 0 | 0 | 0 |
| N#Cc1ccccc1-c1cc(-c2ccccn2)cn(-c2ccccc2)c1=O [Perampanel] | 90.5 | 106 | 97.5 | 93.6 | 104 | 90.5 | 97.5 | 96.5 | 103 | 95.6 | 98.7 | 108 | 104 | 105 | 119 | 94 | 94 | 99.6 | 96.2 | 99.7 | 92.1 | 101 | 95.4 | 96.9 | 92.4 | > 10 | > 10 | > 10 | > 10 | > 10 | 0 | 0 | 0 | 0 | 0 |
| CC[N+](CC)(CC)CC(=O)Nc1c(C)cccc1C [QX-314] | 91.8 | 93.4 | 97 | 102 | 95.6 | 102 | 93.6 | 89.1 | 96.9 | 89.2 | 95.3 | 104 | 92.6 | 94.4 | 95.7 | 103 | 96.9 | 102 | 95.7 | 101 | 95.9 | 99.2 | 93.7 | 97.8 | 93.6 | > 10 | > 10 | > 10 | > 10 | > 10 | 0 | 0 | 0 | 0 | 0 |
| CC1(C)CC(=O)c2c(C(F)(F)F)nn(-c3ccc(C(N)=O)c(N[C@H]4CC[C@H](OC(=O)CN)CC4)c3)c2C1 [SNX-5422] | 90.2 | 95.8 | 85.4 | 37.3 | 35.2 | 85.3 | 93.9 | 80.9 | 40.5 | 38.7 | 101 | 92.9 | 15.8 | 0.9 | 1.9 | 92 | 105 | 68.9 | 3.4 | 3.4 | 95.6 | 94 | 97.5 | 47.3 | 25.8 | 0.189 | 0.161 | 0.0395 | 0.135 | 0.612 | 13.5 | 13.1 | 28.8 | 21.9 | 10.6 |
| O=C(Nc1ccccc1-c1cn2c(CN3CCNCC3)csc2n1)c1cnc2ccccc2n1 [SRT1720] | 88.6 | 93.3 | 99.7 | 98.4 | 5.4 | 102 | 101 | 103 | 102 | 0.9 | 94 | 94.4 | 102 | 91.6 | 0.3 | 102 | 99.7 | 98.1 | 102 | 0.2 | 98.2 | 97.7 | 97.7 | 94.3 | 0.1 | 3.05 | 3.3 | 2.47 | 3.3 | 2.72 | 5.5 | 5.3 | 6.9 | 5.4 | 6.4 |
| N#Cc1c(N(CC(=O)O)CC(=O)O)sc(C(=O)O)c1CC(=O)O [Strontium Ranelate] | 93 | 102 | 93.6 | 106 | 91.2 | 106 | 87.9 | 98.7 | 104 | 104 | 93.7 | 94.9 | 103 | 100 | 108 | 97.3 | 102 | 100 | 101 | 96.7 | 96.7 | 101 | 100 | 97.6 | 99.8 | > 10 | > 10 | > 10 | > 10 | > 10 | 0 | 0 | 0 | 0 | 0 |
| CCOc1cncc(/C=C/CCNC)c1 [TC2559] | 97.9 | 99.4 | 100 | 108 | 102 | 87.6 | 98.9 | 98.2 | 95.9 | 109 | 100 | 93.1 | 110 | 96.7 | 117 | 101 | 102 | 97 | 101 | 104 | 94.1 | 94.5 | 89.2 | 90.2 | 110 | > 10 | > 10 | > 10 | > 10 | > 10 | 0 | 0 | 0 | 0 | 0 |
| CC(C)(C)c1ccc(C(=O)Nc2cn3cc(-n4ccnc4)ccc3n2)cc1 [TC-ASK-10] | 96.1 | 101 | 99.3 | 109 | 81.8 | 97.9 | 95.6 | 105 | 105 | 93.9 | 87.1 | 102 | 98.4 | 104 | 77.2 | 96.4 | 97.3 | 99.5 | 98.8 | 91.6 | 93.2 | 103 | 93.8 | 95.5 | 99.1 | > 10 | > 10 | > 10 | > 10 | > 10 | 0.2 | 0 | 0.6 | 0 | 0 |
| CC(C)c1c(NC(=O)Nc2ccc(Cl)cc2)c(=O)n(-c2ccccc2)n1C [TC-FPR-43] | 98.8 | 105 | 102 | 98.6 | 99.2 | 106 | 102 | 100 | 105 | 96.5 | 90.9 | 105 | 101 | 94.3 | 94.5 | 97.1 | 103 | 99.3 | 107 | 93.2 | 96.7 | 96.8 | 94.2 | 96.9 | 92.4 | > 10 | > 10 | > 10 | > 10 | > 10 | 0 | 0 | 0 | 0 | 0 |
| Cc1cccc(C)c1-n1c(=O)c2cnc(Nc3ccc(N4CCN(C)CC4)cc3)nc2n2c3ccccc3nc12 [TC-S-7003] | 88.3 | 87.9 | 88.3 | 66.1 | 11.6 | 106 | 101 | 95.6 | 70.5 | 5.2 | 98 | 101 | 82 | 58.6 | 9 | 97 | 98.2 | 91.8 | 56.5 | 0.4 | 96.9 | 97.4 | 71.7 | 54.6 | 10.6 | 1.31 | 1.4 | 0.915 | 1.15 | 0.527 | 8.7 | 9.4 | 10.5 | 10.5 | 12.6 |
